The nature of data set [1]: MTT cytotoxicity, peripheral blood mononuclear cells. The data set is classed as cell-based. The settings on record: human, peripheral blood mononuclear cells (PBMC); PBMC, nontumoral control, MTT, 48 h, mean ± SD. How it is done:
(§1) The compounds were solubilized in dimethyl sulfoxide (DMSO, Fischer Chemical, NJ, USA) at 50,000 μg/mL and stored at −20°C until use. From the stock solution, six serial 1:2 double dilutions of each compound were prepared to start with concentrations of 100, 50, 25, 12.5, 6.25, and 3.125 μg/mL, respectively. 5-FU, one of the conventional drugs to treat CRC [34], was used as an antitumor compound control at concentrations ranging between 800 and 0.625 μM.
(§2) SW948 (Dukes' Type C, Grade III, premetastatic colorectal adenocarcinoma—CCL-237), SW48 (Dukes' Type C, Grade IV, noninvasive colorectal adenocarcinoma—CCL231), and SW620 (Dukes' Type C, Grade IV invasive colorectal adenocarcinoma—CCL227) (American Type Culture Collection Manassas, VA, USA) were maintained in standard conditions at 37°C, without a CO2 atmosphere. PBMCs and MCRT were used as nontumoral control cells. PBMCs were obtained by healthy donors, separated using Histopaque-1077 (Sigma-Aldrich) and cultured in RPMI-1640 medium (Sigma-Aldrich) supplemented with 10% SFB and 1% penicillin/streptomycin [46]. In turn, MCRT were obtained from healthy BALB/c mice; for this, mice were euthanized with CO2 after previous sedation, the colorectal tissue removed, cleaned up, and cut into 2 × 2 mm pieces, suspended in supplemented DMEM, and used immediately after collection. […] Moreover, the inclusion of PBMC also served to assess the systemic toxicity of FQAS.
(§3) The cytotoxic activity of synthesized FQASs and QASs was studied by measuring cell viability/mortality, determined with the MTT (3-(4,5-dimethylthiazol-2-yl)-2,5-diphenyl tetrazole bromide) method (VWR Chemicals and Reagents Avantor), upon exposure of each cell line to six serial dilutions of the different compounds independently. Unexposed cells were included as viability controls, and cells exposed to 5-FU were included as cytotoxicity controls. Briefly, cells were adjusted to 200,000 cells/mL in the corresponding supplemented culture medium, and 100 μL (20,000 cells/well) were dispensed into each 96-well cell culture plate (Nunc, Thermo Fisher Scientific). Twelve hours after seeding the monolayer, 100 μL dilution of each compound was added to each well; the plates containing CRC were incubated at 37°C in the absence of CO2, while plates with PBMCs and MCRT were incubated at 37°C and 5% CO2 atmosphere. For MCRT, each piece was placed into each well of a 96-well plate and exposed to each dilution of the FQASs and QASs. After 48 h of incubation, 30 μL/well of MTT (5 mg/mL) was added, and plates were left at 37°C for 3 h, protected from light. After this time, 100 μL/well of DMSO was added to solubilize the formazan crystals formed. Plates were read at 570 nm on a Varioskan plate reader (Thermo Fisher), and nonspecific absorbance was corrected by subtracting the optical densities (OD) of the blank solutions corresponding to the supplemented culture media (RPMI 1640, DMEM, or L-15 media) and 0.5% DMSO. Each concentration of the FQASs, QASs, and controls was evaluated in duplicate in three independent experiments.
(§4) The percentages of viability (equation (1)) and mortality (equation (2)) were calculated with the net OD:(1) % viability=OD treated cell÷nontreated cells×100, (2) % mortality=100−% viability.
(§5) The %mortality data for each compound concentration was recorded, and the median cytotoxic concentration (CC50), corresponding to the concentration at which 50% of cell death occurs, was calculated using GraphPad Prism 8 software (GraphPad, Software, Inc., La Jolla, CA, USA). […] Lastly, the index of selectivity (IS) was calculated by dividing the CC50 value obtained for control cells (MCRT and PBMCs) by the CC50 value obtained for each CRC cell phenotype using the formula: IS = CC50 (MCRT or PBMC) ÷ CC50 (SW948, SW48 or SW620).

In data set [2] the test system is SW948 (Dukes' Type C, Grade III, premetastatic colorectal adenocarcinoma). As to the kind of experiment: MTT cytotoxicity, SW948 cells. The settings on record: for CC50: Homo sapiens, SW948, 48 h, SW948 cells, MTT, 48 h, mean ± SD; for Index of selectivity MCRT / SW948: IS = CC50 MCRT ÷ CC50 SW948; for Index of selectivity PBMC / SW948: IS = CC50 PBMC ÷ CC50 SW948. How it is done: as §1, §2, §3, §4, §5

Data set [3] can be described thus: Ex vivo MTT cytotoxicity, healthy murine colorectal tissue. The data set is classed as cell-based, BALB/c mice. Particulars: BALB/c, mouse, healthy murine colorectal tissue (MCRT) pieces, ex vivo, nontumoral control, MTT, 48 h, mean ± SD. The protocol: as §1, §2, §3, §4, §5
Data set [4] deals with CRC cell lines SW48, SW620, and SW948. As to the kind of experiment: MTT cytotoxicity across CRC cell lines (pooled statements, selectivity between lines). It is filed as cell-based. The settings on record: for Index of selectivity SW48 vs. SW620: IS = CC50 SW48 ÷ CC50 SW620; for Index of selectivity SW948 vs. SW48: IS = CC50 SW948 ÷ CC50 SW48; for Index of selectivity SW948 vs. SW620: IS = CC50 SW948 ÷ CC50 SW620. How it is done:
as §1, §2, §3, §4
The %mortality data for each compound concentration was recorded, and the median cytotoxic concentration (CC50), corresponding to the concentration at which 50% of cell death occurs, was calculated using GraphPad Prism 8 software (GraphPad, Software, Inc., La Jolla, CA, USA). […]

Data set [5] relates to SW620 (Dukes' Type C, Grade IV invasive colorectal adenocarcinoma). As to the kind of experiment: MTT cytotoxicity, SW620 cells. The settings on record: for CC50: Homo sapiens, 48 h; for Index of selectivity MCRT / SW620: IS = CC50 MCRT ÷ CC50 SW620; for Index of selectivity PBMC / SW620: IS = CC50 PBMC ÷ CC50 SW620. The protocol:
as §1, §2, §3, §4, §5

In data set [6] the test system is SW48 (Dukes' Type C, Grade IV, noninvasive colorectal adenocarcinoma). As to the kind of experiment: MTT cytotoxicity, SW48 cells. Particulars: for CC50: SW48 cells, MTT, 48 h, mean ± SD; for Index of selectivity MCRT / SW48: IS = CC50 MCRT ÷ CC50 SW48; for Index of selectivity PBMC / SW48: IS = CC50 PBMC ÷ CC50 SW48. How it is done: as §1, §2, §3, §4, §5

Structures are written as SMILES.

What is called CC50 is the concentration at which the toxic effect on the cells reaches its halfway point. For the molecule `C[N+](C)(CI)CCCCC=C(c1ccc(F)cc1)c1ccc(F)cc1` [Compound 4], in data set [1], the CC50 at 48 h was 45.1 ± 7.3 µM. Besides, in data set [2], the CC50 was found to be 72.8 ± 12.8 µM, the “Index of selectivity MCRT / SW948” value was 1.5 and the “Index of selectivity PBMC / SW948” value came to 0.6. The midpoint of cytotoxicity in data set [3], the CC50 at 48 h, lay at 107 ± 4.5 µM. In data set [4], the “Index of selectivity SW48 vs. SW620” value is given as 1.9, the “Index of selectivity SW948 vs. SW48” value stood at 0.7 and the “Index of selectivity SW948 vs. SW620” value was found to be 1.4. In data set [5], the CC50 is 52.5 ± 5.6 µM, the “Index of selectivity MCRT / SW620” value is given as 2.0 and the “Index of selectivity PBMC / SW620” value came to 0.9. In addition, it took 100 ± 3 µM to reach half-maximal cytotoxicity in data set [6] (Homo sapiens, SW48, 48 h) (CC50). In data set [6], the “Index of selectivity MCRT / SW48” value came out at 1.1 and the “Index of selectivity PBMC / SW48” value turned out to be 0.45.

Molecule `C[N+](C)(C)CCCC=C(c1cccc(F)c1)c1cccc(F)c1` [Compound 1] showed a cytotoxic concentration (CC50) at 48 h in data set [1] of 29.8 ± 2.4 µM. Further, in data set [2], the CC50 stood at 211 ± 7.4 µM, the “Index of selectivity MCRT / SW948” value came out at 1.0 and the “Index of selectivity PBMC / SW948” value is on record as 0.1. The same molecule came in with a CC50 at 48 h in data set [3] of 212 ± 4 µM. Also, in data set [4], the “Index of selectivity SW48 vs. SW620” value turned out to be 1.7, the “Index of selectivity SW948 vs. SW48” value is recorded as 2.0 and the “Index of selectivity SW948 vs. SW620” value worked out at 3.3. For the same molecule, in data set [5], it took 63.7 ± 15.3 µM to reach half-maximal cytotoxicity (CC50), the “Index of selectivity MCRT / SW620” value is given as 3.3 and the “Index of selectivity PBMC / SW620” value turned out to be 0.5. Besides, in data set [6] (Homo sapiens, SW48, 48 h), the CC50 was found to be 105 ± 12 µM. For the same molecule, in data set [6], the “Index of selectivity MCRT / SW48” value amounted to 2.0 and the “Index of selectivity PBMC / SW48” value stood at 0.3.

In data set [1], `C[N+](C)(CI)CCCCC=C(c1ccc(C(F)(F)F)cc1)c1ccc(C(F)(F)F)cc1` [Compound 13] returned a CC50 at 48 h of 53.9 ± 3 µM. Further, in data set [2], the CC50 worked out at 26.9 ± 4 µM and the “Index of selectivity PBMC / SW948” value is 2.0. The CC50 at 48 h in data set [3] is > 293 µM. In data set [4], the “Index of selectivity SW48 vs. SW620” value was 1.0, the “Index of selectivity SW948 vs. SW48” value was found to be 1.7 and the “Index of selectivity SW948 vs. SW620” value stood at 1.7. In addition, in data set [5], the CC50 is 16 ± 1.5 µM and the “Index of selectivity PBMC / SW620” value stood at 3.4. Moreover, in data set [6] (Homo sapiens, SW48, 48 h), the CC50 stood at 18.5 µM. Besides, in data set [6], the “Index of selectivity PBMC / SW48” value stood at 3.3 and the midpoint of cytotoxicity, the CC50, lay at 16.3 ± 2 µM.

For the molecule `C[N+](C)(C)CCCC=C(c1ccc(C(F)(F)F)cc1)c1ccc(C(F)(F)F)cc1` [Compound 10], it took 51.4 ± 5.3 µM to reach half-maximal cytotoxicity in data set [1] (CC50 at 48 h). In data set [2], the CC50 turned out to be 13.4 ± 3.9 µM, the “Index of selectivity MCRT / SW948” value turned out to be 8.9 and the “Index of selectivity PBMC / SW948” value was found to be 3.8. In data set [3], the CC50 at 48 h came to 119 ± 8.7 µM. For the same molecule, in data set [4], the “Index of selectivity SW48 vs. SW620” value was determined as 2.3, the “Index of selectivity SW948 vs. SW48” value came to 0.3 and the “Index of selectivity SW948 vs. SW620” value amounted to 0.7. In addition, in data set [5], the CC50 came out at 18.8 ± 4.7 µM, the “Index of selectivity MCRT / SW620” value amounted to 6.4 and the “Index of selectivity PBMC / SW620” value turned out to be 2.7. Besides, the CC50 in data set [6] (Homo sapiens, SW48, 48 h) is 44 ± 6 µM. In data set [6], the “Index of selectivity MCRT / SW48” value came out at 2.7 and the “Index of selectivity PBMC / SW48” value is recorded as 1.2.

For `C[N+](C)(CCl)CCCCC=C(c1ccc(F)cc1)c1ccc(F)cc1` [Compound 3], half-maximal cytotoxicity in data set [1] (CC50 at 48 h) was put at 39.7 ± 7.7 µM. In data set [2], the CC50 was found to be 52.9 ± 13.8 µM, the “Index of selectivity MCRT / SW948” value turned out to be 2.5 and the “Index of selectivity PBMC / SW948” value was found to be 0.8. Besides, half-maximal cytotoxicity in data set [3] (CC50 at 48 h) was put at 130 ± 20 µM. Also, in data set [4], the “Index of selectivity SW48 vs. SW620” value is 1.9, the “Index of selectivity SW948 vs. SW48” value is on record as 0.4 and the “Index of selectivity SW948 vs. SW620” value turned out to be 0.8. In addition, in data set [5], it took 64.5 ± 8.1 µM to reach half-maximal cytotoxicity (CC50), the “Index of selectivity MCRT / SW620” value was 2.0 and the “Index of selectivity PBMC / SW620” value amounted to 0.6. The cytotoxic concentration (CC50) in data set [6] (Homo sapiens, SW48, 48 h) came to 125 ± 5.1 µM. In data set [6], the “Index of selectivity MCRT / SW48” value is 1.0 and the “Index of selectivity PBMC / SW48” value worked out at 0.32.

These data come from paper PMC11540889, “In Vitro Cytotoxicity of Fluorinated Quaternary Ammonium Salts in Colorectal Cancer Cells and In Silico Pharmacology” (Advances in Pharmacological and Pharmaceutical Sciences, 2024).
